Values of other authors as cited in patent publication US6423847B1, “Synthesis and clinical uses of D,α-tocopherol nicotinate compounds” (Chronorx, LLC, priority 1999, dated 2002).
Like-named read-outs stand apart in the source and are kept apart here.

Experiments:
[1] = test system: glutathione peroxidase (GSHPx); details: following supplementation with DAT
[2] = test system: human aortic endothelial cells; details: human aortic endothelial cells pre-incubated with vitamin E, oxidative stress; increased from 37%
[3] = test system: malonyldialdehyde and superoxide anion levels; details: 400 mg once a day, orally for 4 weeks
[4] = laboratory mice
[5] = test system: exogenous glucose utilization by the heart; details: normal volunteers, 18F-fluorodeoxyglucose PET
[6] = test system: liver NAD+; poly(ADP-ribose)

Cc1c(C)c2c(c(C)c1O)CC[C@@](C)(CCC[C@H](C)CCC[C@H](C)CCCC(C)C)O2 [vitamin E, D,α-tocopherol]
glutathione peroxidase (GSHPx) activities [1]: increase as much as twofold | cell viability [2]: 85% | malonyldialdehyde levels [3]: significantly reduces | superoxide anion levels [3]: significantly reduces

O=C(O)c1cccnc1 [Nicotinic acid, nicotinic acid]
increase in Zn+2 absorption ([4]; fasting states): 38.9% | increase in Zn+2 absorption ([4]; postprandial conditions): 70.9% | increase in exogenous glucose utilization by the heart [5]: two- to three-fold increase

NC(=O)c1cccnc1 [nicotinamide]
liver polyADP-ribose ([6]; above control groups): significantly elevates | liver NAD+ ([6]; at 1000 mg/kg): elevations
